Laboratory results reported in patent US20100261723A1, “TRISUBSTITUTED PYRIMIDINE DERIVATIVES FOR THE TREATMENT OF PROLIFERATIVE DISEASES” (ASTRAZENECA AB, priority 2007, published 2010).
pIC50: −log10 of the molar value. Several values for one entry are separate records, joined by “and”; a condition that tells them apart may be missing. Equal values may be shown once. Read-outs that look alike come from different tables or passages of the source.

Assays:
mTOR kinase = molecular target: T1, mTOR kinase (Homo sapiens, UniProt P42345); experiment: In vitro mTOR kinase assay, Test (a)(i) (AlphaScreen); type: biochemical
T1 construct: FLAG; made in house
Method: (a)(i) In Vitro mTOR Kinase Assay
A C-terminal truncation of mTOR encompassing amino acid residues 1362 to 2549 of mTOR (EMBL Accession No. L34075) was stably expressed as a FLAG-tagged fusion in HEK293 cells as described by Vilella-Bach et al., […], 1999, 274, 4266-4272. The HEK293 FLAG-tagged mTOR (1362-2549) stable cell line was routinely maintained at 37° C. with 5% CO2 up to a confluency of 70-90% in Dulbecco's modified Eagle's growth medium (DMEM; Invitrogen Limited, Paisley, UK Catalogue No. 41966-029) containing 10% heat-inactivated foetal calf serum (FCS; Sigma, Poole, Dorset, UK, Catalogue No. F0392), 1% L-glutamine (Gibco, Catalogue No. 25030-024) and 2 mg/ml Geneticin (G418 sulfate; Invitrogen Limited, UK Catalogue No. 10131-027). Following expression in the mammalian HEK293 cell line, expressed protein was purified using the FLAG epitope tag using standard purification techniques.
A 30 μl mixture of recombinant purified mTOR enzyme, 1 μM biotinylated peptide substrate (Biotin-Ahx-[…]NH2; Bachem UK Ltd), ATP (20 μM) and a buffer solution [comprising Tris-HCl pH7.4 buffer (50 mM), EGTA (0.1 mM), bovine serum albumin (0.5 mg/mL), DTT (1.25 mM) and manganese chloride (10 mM)] was agitated at room temperature for 90 minutes.
These assay solutions were incubated for 2 hours at room temperature.
Phosphorylated biotinylated peptide is formed in situ as a result of mTOR mediated phosphorylation. The phosphorylated biotinylated peptide that is associated with AlphaScreen Streptavidin donor beads forms a complex with the p70 S6 Kinase (T389) 1A5 Monoclonal Antibody that is associated with Alphascreen Protein A acceptor beads. […] Accordingly, the presence of mTOR kinase activity results in an assay signal. In the presence of an mTOR kinase inhibitor, signal strength is reduced.

p110α Type Ia human PI3K = molecular target: T2, p110α Type Ia human PI3K (Homo sapiens, UniProt P42336); experiment: In vitro PI3K enzyme assay, Test (b)(i) (AlphaScreen); type: biochemical; settings: individual values, measured twice; read-out: IC50 versus p110α Type Ia human PI3K, Test (b)(i)
T2 construct: full length DNA of each of the p110α, p110β and p110δ Type Ia human PI3K p110 isoforms; 6-His; made in house
From the text: (b)(i) In Vitro PI3K Enzyme Assay

Serine 473 in Akt = experiment: In vitro phospho-Ser473 Akt assay, Test (c); type: cell-based; settings: MDA-MB-468 human breast adenocarcinoma cells, 2 hours; read-out: IC50 versus Serine 473 in Akt, Test (c)
Method: (c) In Vitro Phospho-SeR473 Akt Assay
This assay determines the ability of test compounds to inhibit phosphorylation of Serine 473 in Akt as assessed using Acumen Explorer technology (Acumen Bioscience Limited), a plate reader that can be used to rapidly quantitate features of images generated by laser-scanning.
A MDA-MB-468 human breast adenocarcinoma cell line (LGC Promochem, Teddington, Middlesex, UK, Catalogue No. HTB-132) was routinely maintained at 37° C. with 5% CO2 up to a confluency of 70-90% in DMEM containing 10% heat-inactivated FCS and 1% L-glutamine.
For the assay, the cells were detached from the culture flask using ‘Accutase’ (Innovative Cell Technologies Inc., San Diego, Calif., USA; Catalogue No. AT104) using standard tissue culture methods and resuspended in media to give 1.7×10^5 cells per mL. […]
All subsequent aspiration and wash steps were carried out using a Tecan 96 well plate washer (aspiration speed 10 mm/sec). […] An aliquot of PBS (50 μl) was added to each well and the plates were sealed with black plate sealers and the fluorescence signal was detected and analysed.
Fluorescence dose response data obtained with each compound were analysed and the degree of inhibition of Serine 473 in Akt was expressed as an IC50 value.

T1 sequence (P42345 1362-2549): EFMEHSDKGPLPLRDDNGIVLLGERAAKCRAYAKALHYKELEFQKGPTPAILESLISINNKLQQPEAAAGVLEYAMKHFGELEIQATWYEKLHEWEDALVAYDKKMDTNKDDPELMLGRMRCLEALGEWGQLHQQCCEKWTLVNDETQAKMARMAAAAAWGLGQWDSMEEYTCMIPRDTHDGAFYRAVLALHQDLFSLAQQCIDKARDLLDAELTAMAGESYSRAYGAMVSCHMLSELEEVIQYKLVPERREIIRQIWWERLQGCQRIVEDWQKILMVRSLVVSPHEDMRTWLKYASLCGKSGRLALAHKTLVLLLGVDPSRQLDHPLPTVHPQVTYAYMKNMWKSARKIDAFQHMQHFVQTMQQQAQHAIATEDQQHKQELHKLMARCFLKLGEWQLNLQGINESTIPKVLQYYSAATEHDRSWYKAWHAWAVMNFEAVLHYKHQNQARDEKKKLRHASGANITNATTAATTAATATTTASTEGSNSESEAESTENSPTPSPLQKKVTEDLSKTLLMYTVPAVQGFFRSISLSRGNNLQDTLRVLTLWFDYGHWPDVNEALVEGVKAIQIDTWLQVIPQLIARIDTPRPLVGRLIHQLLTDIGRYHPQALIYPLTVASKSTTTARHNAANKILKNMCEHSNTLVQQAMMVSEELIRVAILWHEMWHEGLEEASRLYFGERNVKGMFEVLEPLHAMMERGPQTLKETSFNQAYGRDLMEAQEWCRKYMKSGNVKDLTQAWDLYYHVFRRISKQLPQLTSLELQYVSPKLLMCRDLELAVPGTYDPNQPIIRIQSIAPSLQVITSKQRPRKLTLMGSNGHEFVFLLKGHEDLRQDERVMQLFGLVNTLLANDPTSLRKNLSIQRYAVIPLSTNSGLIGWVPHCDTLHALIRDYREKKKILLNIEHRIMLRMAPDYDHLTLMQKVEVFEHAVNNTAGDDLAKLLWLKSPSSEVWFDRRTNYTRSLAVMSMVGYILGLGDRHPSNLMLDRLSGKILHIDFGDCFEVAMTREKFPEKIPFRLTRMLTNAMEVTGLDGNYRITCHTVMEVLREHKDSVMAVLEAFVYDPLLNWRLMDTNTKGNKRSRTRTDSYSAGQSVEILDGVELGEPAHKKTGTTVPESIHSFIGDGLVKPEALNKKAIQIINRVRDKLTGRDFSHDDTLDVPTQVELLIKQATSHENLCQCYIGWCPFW
T2 sequence (P42336 whole entry, canonical isoform): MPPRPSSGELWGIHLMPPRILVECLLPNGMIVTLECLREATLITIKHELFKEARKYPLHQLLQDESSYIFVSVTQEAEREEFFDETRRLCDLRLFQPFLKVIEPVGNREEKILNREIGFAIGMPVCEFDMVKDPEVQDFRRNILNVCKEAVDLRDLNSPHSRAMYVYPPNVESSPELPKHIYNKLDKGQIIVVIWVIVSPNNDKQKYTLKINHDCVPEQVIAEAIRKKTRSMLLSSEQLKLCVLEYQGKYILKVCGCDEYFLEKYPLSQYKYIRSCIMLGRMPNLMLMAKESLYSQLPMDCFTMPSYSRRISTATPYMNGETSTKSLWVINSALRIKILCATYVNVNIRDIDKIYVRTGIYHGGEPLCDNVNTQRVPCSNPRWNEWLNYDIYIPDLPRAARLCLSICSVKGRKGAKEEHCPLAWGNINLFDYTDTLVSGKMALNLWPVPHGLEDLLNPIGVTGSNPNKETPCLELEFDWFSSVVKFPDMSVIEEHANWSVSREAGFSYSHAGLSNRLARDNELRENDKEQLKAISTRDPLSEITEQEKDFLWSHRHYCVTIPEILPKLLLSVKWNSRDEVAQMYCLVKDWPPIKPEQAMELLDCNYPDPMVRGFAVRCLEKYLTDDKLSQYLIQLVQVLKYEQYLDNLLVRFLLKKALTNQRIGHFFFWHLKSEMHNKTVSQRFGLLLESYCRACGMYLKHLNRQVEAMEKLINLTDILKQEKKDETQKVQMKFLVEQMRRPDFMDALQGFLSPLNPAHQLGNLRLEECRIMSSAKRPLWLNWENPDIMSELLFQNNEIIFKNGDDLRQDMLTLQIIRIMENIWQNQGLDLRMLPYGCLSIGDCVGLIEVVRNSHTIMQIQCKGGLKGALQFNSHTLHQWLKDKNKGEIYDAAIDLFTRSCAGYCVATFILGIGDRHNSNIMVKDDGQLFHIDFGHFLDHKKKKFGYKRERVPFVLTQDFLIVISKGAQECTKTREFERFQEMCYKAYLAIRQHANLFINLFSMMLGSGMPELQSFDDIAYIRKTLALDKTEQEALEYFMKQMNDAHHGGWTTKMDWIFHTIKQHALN
T2 sequence (P27986 whole entry partner, canonical isoform): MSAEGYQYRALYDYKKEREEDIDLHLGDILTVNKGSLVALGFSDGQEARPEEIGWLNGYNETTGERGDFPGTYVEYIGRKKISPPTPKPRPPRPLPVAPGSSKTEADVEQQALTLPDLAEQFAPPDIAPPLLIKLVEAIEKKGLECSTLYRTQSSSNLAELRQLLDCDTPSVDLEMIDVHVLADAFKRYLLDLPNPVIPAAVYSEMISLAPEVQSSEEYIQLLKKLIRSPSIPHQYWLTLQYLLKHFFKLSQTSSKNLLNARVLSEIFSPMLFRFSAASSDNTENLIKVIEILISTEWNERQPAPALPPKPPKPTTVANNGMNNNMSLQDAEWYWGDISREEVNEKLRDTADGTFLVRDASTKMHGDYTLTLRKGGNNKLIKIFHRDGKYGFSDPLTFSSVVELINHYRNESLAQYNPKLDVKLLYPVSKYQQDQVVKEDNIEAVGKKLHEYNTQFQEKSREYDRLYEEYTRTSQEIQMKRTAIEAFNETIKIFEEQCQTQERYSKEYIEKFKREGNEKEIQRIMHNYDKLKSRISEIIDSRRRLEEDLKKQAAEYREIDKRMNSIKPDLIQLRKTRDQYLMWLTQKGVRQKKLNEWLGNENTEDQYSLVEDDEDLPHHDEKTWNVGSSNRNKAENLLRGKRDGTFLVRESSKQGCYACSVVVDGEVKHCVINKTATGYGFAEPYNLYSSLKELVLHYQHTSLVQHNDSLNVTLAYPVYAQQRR

CN(C)CC(=O)Nc1ccc(-c2nc(CS(C)(=O)=O)cc(N3CCOCC3)n2)cc1 [Example 5p, 2-dimethylamino-N-[4-[4-(methylsulfonylmethyl)-6-morpholin-4-yl-pyrimidin-2-yl]phenyl]acetamide]
pIC50 (mTOR kinase; individual values, measured twice, read-out: IC50 versus mTOR kinase, Test (a)(i)): 5.61 and 5.79 | pIC50 (mTOR kinase; recombinant FLAG-tagged mTOR (1362-2549), ATP 20 μM, read-out: Test (a)(i) IC50): 5.70 | pIC50 (p110α Type Ia human PI3K): 4.03 and 4.29 | pIC50 (Serine 473 in Akt): 5.11
